{"source": "patent US10266526B2", "about": "“Substituted 1,2,3-triazoles as SMYD inhibitors for treating cancer” (EPIZYME, INC., priority 2014, dated 2019)", "data": [{"biological_target": "SMYD3 (Homo sapiens (Human), UniProt Q9H7B4)", "sequence (Q9H7B4 whole entry)": "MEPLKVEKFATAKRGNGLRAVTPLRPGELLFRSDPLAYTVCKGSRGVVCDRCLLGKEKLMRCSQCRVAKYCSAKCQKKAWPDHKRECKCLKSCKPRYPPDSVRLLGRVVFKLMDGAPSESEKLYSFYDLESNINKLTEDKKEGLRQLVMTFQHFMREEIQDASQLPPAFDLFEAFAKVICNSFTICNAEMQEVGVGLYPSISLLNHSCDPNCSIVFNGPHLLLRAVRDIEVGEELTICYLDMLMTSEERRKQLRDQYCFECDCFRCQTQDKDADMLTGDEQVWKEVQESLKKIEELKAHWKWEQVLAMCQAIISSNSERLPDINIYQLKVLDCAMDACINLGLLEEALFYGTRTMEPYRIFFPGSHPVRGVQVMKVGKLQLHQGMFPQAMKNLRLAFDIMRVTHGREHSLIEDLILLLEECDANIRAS", "experiment": "SMYD3 biochemical assay (SMYD3 enzyme assay on MEKK2 protein substrate, 3H-SAM scintillation proximity assay)", "conditions": "Table 1A; average of n = 1 to n = 50; read-out: SMYD3 Biochem IC50", "in_short": "(§1)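 Native full-length human SMYD3, expressed in E. coli, was preincubated with compound for 30 min at room temperature in 25 mM Tris-Cl pH 8.0, 1 mM TCEP, 0.005% BSG and 0.005% Tween 20. ³H-SAM plus GST-MEKK2 then started the reaction. It was stopped with unlabeled SAM (100 uM final), and methylated MEKK2 was read by SPA.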", "units": {"IC50": "µM"}, "values": [{"smiles": "NCCC(=O)N[C@H]1CC[C@H](NC(=O)c2cc3cn[nH]c3cn2)CC1", "note": "[compound 529, N-((1r,4r)-4-(3-aminopropanamido)cyclohexyl)-1H-pyrazolo[3,4-c]pyridine-5-carboxamide]", "IC50": 4.45}, {"smiles": "N[C@H]1CC[C@H](C(=O)N2CCC(NC(=O)c3nnc[nH]3)CC2)CC1", "note": "[compound 555, N-(1-((1r,4r)-4-aminocyclohexane-1-carbonyl)piperidin-4-yl)-4H-1,2,4-triazole-3-carboxamide]", "IC50": "> 50"}, {"smiles": "O=C(NC1CCN(C(=O)CC2CCNCC2)CC1)c1nnc[nH]1", "note": "[compound 547, N-(1-(2-(piperidin-4-yl)acetyl)piperidin-4-yl)-4H-1,2,4-triazole-3-carboxamide]", "IC50": "> 50"}, {"smiles": "CC(NC(=O)c1cc(Cl)[nH]n1)C1CCN(C(=O)[C@H](C)N)CC1", "note": "(stereo partly drawn) [compound 527, N-(1-(1-(L-alanyl)piperidin-4-yl)ethyl)-5-chloro-1H-pyrazole-3-carboxamide]", "IC50": "> 50"}]}, {"biological_target": "SMYD3 (Homo sapiens (Human), UniProt Q9H7B4)", "experiment": "SMYD3 biochemical assay (SMYD3 enzyme assay on MEKK2 protein substrate, 3H-SAM scintillation proximity assay)", "conditions": "read-out: SMYD3 Biochem IC50", "in_short": "as §1", "units": {"IC50": "µM"}, "values": [{"smiles": "NCCC(=O)N[C@H]1CC[C@H](NC(=O)c2nc3ccc(F)cc3s2)CC1", "note": "[compound 499, N-((1r,4r)-4-(3-aminopropanamido)cyclohexyl)-6-fluorobenzo[d]thiazole-2-carboxamide]", "IC50": 86.3}, {"smiles": "COc1cncc(C(=O)NC(C)C2CCN(C(=O)[C@H](C)N)CC2)n1", "note": "(stereo partly drawn) [compound 261, N-(1-(1-(L-alanyl)piperidin-4-yl)ethyl)-6-methoxypyrazine-2-carboxamide]", "IC50": "> 100"}, {"smiles": "N[C@H]1CC[C@H](NC(=O)c2ccc3c(c2)CNC3=O)CC1", "note": "[compound 487, N-((1r,4r)-4-aminocyclohexyl)-1-oxoisoindoline-5-carboxamide]", "IC50": 37.9}, {"smiles": "N[C@H]1CC[C@H](NC(=O)C2=NNC(=O)CC2)CC1", "note": "[compound 424, N-((1r,4r)-4-aminocyclohexyl)-6-oxo-1,4,5,6-tetrahydropyridazine-3-carboxamide]", "IC50": "> 100"}, {"smiles": "N[C@H]1CC[C@H](NC(=O)c2cc3c(cc2Cl)NC(=O)C3)CC1", "note": "[compound 492, N-((1r,4r)-4-aminocyclohexyl)-6-chloro-2-oxoindoline-5-carboxamide]", "IC50": 1.59}, {"smiles": "CC(NC(=O)c1ccc2c(c1)CCCC2)C1CCN(C(=O)[C@H](C)N)CC1", "note": "(stereo partly drawn) [compound 202, N-(1-(1-(L-alanyl)piperidin-4-yl)ethyl)-5,6,7,8-tetrahydronaphthalene-2-carboxamide]", "IC50": 59}, {"smiles": "NCCC(=O)N[C@H]1CC[C@H](NC(=O)[C@H]2CC[C@H](N)CC2)CC1", "note": "[compound 303, (1r,4r)-4-amino-N-((1r,4r)-4-(3-aminopropanamido)cyclohexyl)cyclohexane-1-carboxamide]", "IC50": "> 100"}, {"smiles": "CC(NC(=O)c1cncs1)C1CCN(C(=O)[C@H](C)N)CC1", "note": "(stereo partly drawn) [compound 309, N-(1-(1-(L-alanyl)piperidin-4-yl)ethyl)thiazole-5-carboxamide]", "IC50": "> 100"}, {"smiles": "NCCC(=O)N[C@H]1CC[C@H](NC(=O)c2ccc3c(c2)no[n+]3[O-])CC1", "note": "[compound 331, 5-(((1r,4r)-4-(3-aminopropanamido)cyclohexyl)carbamoyl)benzo[c][1,2,5]oxadiazole 1-oxide]", "IC50": 85.1}, {"smiles": "Cc1ccc(C(=O)NC(C)C2CCN(C(=O)[C@H](C)N)CC2)cn1", "note": "(stereo partly drawn) [compound 257, N-(1-(1-(L-alanyl)piperidin-4-yl)ethyl)-6-methylnicotinamide]", "IC50": "> 100"}, {"smiles": "COc1cccc(C(=O)N[C@H]2CC[C@H](NC(=O)CCN)CC2)n1", "note": "[compound 353, N-((1r,4r)-4-(3-aminopropanamido)cyclohexyl)-6-methoxypicolinamide]", "IC50": "> 100"}, {"smiles": "NCCC(=O)N[C@H]1CC[C@H](NC(=O)c2cc(O)c3ccccc3n2)CC1", "note": "[compound 404, N-((1r,4r)-4-(3-aminopropanamido)cyclohexyl)-4-hydroxyquinoline-2-carboxamide]", "IC50": "> 100"}, {"smiles": "NCCC(=O)N[C@H]1CC[C@H](NC(=O)c2ccc3cc[nH]c3c2)CC1", "note": "[compound 272, N-((1r,4r)-4-(3-aminopropanamido)cyclohexyl)-1H-indole-6-carboxamide]", "IC50": 37.2}, {"smiles": "Cc1nn(C(C)C(=O)N[C@H]2CC[C@H](NC(=O)CCN)CC2)c(C)c1Br", "note": "(some centres unmarked) [compound 431, 3-amino-N-((1r,4r)-4-(2-(4-bromo-3,5-dimethyl-1H-pyrazol-1-yl)propanamido)cyclohexyl)propanamide]", "IC50": "> 100"}, {"smiles": "CC(NC(=O)c1ccc2c(c1)OC(F)(F)O2)C1CCN(C(=O)[C@H](C)N)CC1", "note": "(stereo partly drawn) [compound 284, N-(1-(1-(L-alanyl)piperidin-4-yl)ethyl)-2,2-difluorobenzo[d][1,3]dioxole-5-carboxamide]", "IC50": "> 100"}, {"smiles": "NCCC(=O)N[C@H]1CC[C@H](NC(=O)c2ccc(O)cn2)CC1", "note": "[compound 361, N-((1r,4r)-4-(3-aminopropanamido)cyclohexyl)-5-hydroxypicolinamide]", "IC50": "> 100"}, {"smiles": "CC1Oc2ccc(C(=O)N[C@H]3CC[C@H](N)CC3)cc2NC1=O", "note": "(some centres unmarked) [compound 452, N-((1r,4r)-4-aminocyclohexyl)-2-methyl-3-oxo-3,4-dihydro-2H-benzo[b][1,4]oxazine-6-carboxamide]", "IC50": 39.1}, {"smiles": "NCCC(=O)N1CCC(CC(=O)N2CCC3NC(=O)CC3C2)CC1", "note": "(centres unmarked) [compound 483, 5-(2-(1-(3-aminopropanoyl)piperidin-4-yl)acetyl)octahydro-2H-pyrrolo[3,2-c]pyridin-2-one]", "IC50": 10.2}, {"smiles": "N[C@H]1CC[C@H](NC(=O)c2ccc3c(c2)C(=O)C(=O)N3)CC1", "note": "[compound 470, N-((1r,4r)-4-aminocyclohexyl)-2,3-dioxoindoline-5-carboxamide]", "IC50": 7.46}, {"smiles": "N[C@H]1CC[C@H](NC(=O)c2cnc3ccccc3n2)CC1", "note": "[compound 405, N-((1r,4r)-4-aminocyclohexyl)quinoxaline-2-carboxamide]", "IC50": "> 100"}, {"smiles": "CC(NC(=O)c1ccccn1)C1CCN(C(=O)[C@H](C)N)CC1", "note": "(stereo partly drawn) [compound 296, N-(1-(1-(L-alanyl)piperidin-4-yl)ethyl)picolinamide]", "IC50": "> 100"}, {"smiles": "N[C@H]1CC[C@H](NC(=O)c2ccnc(O)c2)CC1", "note": "[compound 292, N-((1r,4r)-4-aminocyclohexyl)-2-hydroxyisonicotinamide]", "IC50": "> 100"}, {"smiles": "N[C@H]1CC[C@H](NC(=O)c2ccncc2F)CC1", "note": "[compound 308, N-((1r,4r)-4-aminocyclohexyl)-3-fluoroisonicotinamide]", "IC50": "> 100"}]}, {"biological_target": "SMYD3 (Homo sapiens (Human), UniProt Q9H7B4)", "experiment": "SMYD3 biochemical assay (SMYD3 enzyme assay on MEKK2 protein substrate, 3H-SAM scintillation proximity assay)", "conditions": "read-out: SMYD3 Biochem IC50 (μM)*", "in_short": "as §1", "units": {"IC50": "µM"}, "values": [{"smiles": "CC(=O)c1cccc(C(=O)N[C@H]2CC[C@H](N)CC2)c1", "note": "[compound 23, 3-acetyl-N-((1r,4r)-4-aminocyclohexyl)benzamide]", "IC50": 91.5}, {"smiles": "CC(CC(=O)N[C@H]1CC[C@H](N)CC1)C1CC1", "note": "(some centres unmarked) [compound 62, N-((1r,4r)-4-aminocyclohexyl)-3-cyclopropylbutanamide]", "IC50": 155}, {"smiles": "CC(=O)Nc1ccc(S(=O)(=O)N2CCC(NC(=O)C3CCN(CC4CC4)CC3)CC2)cc1", "note": "[compound 12, N-(1-((4-acetamidophenyl)sulfonyl)piperidin-4-yl)-1-(cyclopropylmethyl)piperidine-4-carboxamide]", "IC50": 45.9}, {"smiles": "CCc1ncc(C(=O)NC(c2ccccc2)C2CCNCC2)s1", "note": "(centres unmarked) [compound 60, 2-ethyl-N-(phenyl(piperidin-4-yl)methyl)thiazole-5-carboxamide]", "IC50": 150}, {"smiles": "Cc1cc2[nH]c(C(=O)NC(c3ccccc3)C3CCNCC3)cc2o1", "note": "(centres unmarked) [compound 110, 2-methyl-N-(phenyl(piperidin-4-yl)methyl)-4H-furo[3,2-b]pyrrole-5-carboxamide]", "IC50": 82.8}, {"smiles": "CC(NC(=O)c1ccc2oc(=O)ccc2c1)C1CCN(C(=O)[C@H](C)N)CC1", "note": "(stereo partly drawn) [compound 95, N-(1-(1-(L-alanyl)piperidin-4-yl)ethyl)-2-oxo-2H-chromene-6-carboxamide]", "IC50": 150}, {"smiles": "COc1ccc2cc(C(C)C(=O)N[C@H]3CC[C@H](N)CC3)ccc2c1", "note": "(some centres unmarked) [compound 170, N-((1r,4r)-4-aminocyclohexyl)-2-(6-methoxynaphthalen-2-yl)propanamide]", "IC50": 76.4}, {"smiles": "CCC(=O)Nc1cccc(C(=O)N[C@H]2CC[C@H](N)CC2)c1", "note": "[compound 25, N-((1r,4r)-4-aminocyclohexyl)-3-propionamidobenzamide]", "IC50": 84.3}, {"smiles": "N[C@H]1CC[C@H](NC(=O)c2ccc3nc(O)cnc3c2)CC1", "note": "[compound 43, N-((1r,4r)-4-aminocyclohexyl)-2-hydroxyquinoxaline-6-carboxamide]", "IC50": 60.4}, {"smiles": "CC(=O)Nc1ccc(S(=O)(=O)N2CCC(NC(=O)c3cnn(C)c3)CC2)cc1", "note": "[compound 8, N-(1-((4-acetamidophenyl)sulfonyl)piperidin-4-yl)-1-methyl-1H-pyrazole-4-carboxamide]", "IC50": "> 100"}, {"smiles": "Nc1nc(C(=O)NC(c2ccccc2)C2CCNCC2)co1", "note": "(centres unmarked) [compound 80, 2-amino-N-(phenyl(piperidin-4-yl)methyl)oxazole-4-carboxamide]", "IC50": 97.1}, {"smiles": "CC(N)C(=O)N[C@H]1CC[C@H](NC(=O)c2ccc3c(c2)CC(=O)N3)CC1", "note": "(some centres unmarked) [compound 175, N-((1r,4r)-4-(2-aminopropanamido)cyclohexyl)-2-oxoindoline-5-carboxamide]", "IC50": 0.42}, {"smiles": "N[C@@H](Cc1c[nH]c2ccccc12)C(=O)N1CCC(NC(=O)c2ccc3c(c2)CC(=O)N3)CC1", "note": "[compound 51, N-(1-(L-tryptophyl)piperidin-4-yl)-2-oxoindoline-5-carboxamide]", "IC50": 0.69}, {"smiles": "C[C@H](N)C(=O)N1CCC(C)(CNC(=O)c2ccc3c(c2)CC(=O)N3)CC1", "note": "[compound 176, N-((1-(L-alanyl)-4-methylpiperidin-4-yl)methyl)-2-oxoindoline-5-carboxamide]", "IC50": 3.52}, {"smiles": "CS(=O)(=O)c1cccc(C(=O)N[C@H]2CC[C@H](N)CC2)c1", "note": "[compound 151, N-((1r,4r)-4-aminocyclohexyl)-3-(methylsulfonyl)benzamide]", "IC50": "> 100"}, {"smiles": "CC(NC(=O)c1ccc2c(c1)OCO2)C1CCN(C(=O)[C@H](C)N)CC1", "note": "(stereo partly drawn) [compound 146, N-(1-(1-(L-alanyl)piperidin-4-yl)ethyl)benzo[d][1,3]dioxole-5-carboxamide]", "IC50": "> 100"}, {"smiles": "CC(=O)Nc1cccc(C(=O)N[C@H]2CC[C@H](N)CC2)c1", "note": "[compound 24, 3-acetamido-N-((1r,4r)-4-aminocyclohexyl)benzamide]", "IC50": 80.3}]}]}
